Results reported in patent US20070004634A1 (Novo Nordisk A/S, priority 1998, published 2007).
Like-named read-outs stand apart in the source and are kept apart here. Blank lines part the entries; values can stand above or below the compound they belong to. Positions of bridges follow the written chain, without caps; N, C: chain ends. Residues, ends and D or L forms follow the SMILES beside them. No end group written: not given here.

What was measured:
IGF-1R [1] = target: T1, IGF-1R (Homo sapiens, UniProt P08069); experiment: Phage ELISA, binding of phage clones to IGF-1R (ratio over background); conditions: ratio of IGF-1R divided by ratio of IR
IR [2] = target: T2, IR (Homo sapiens, UniProt P06213); experiment: IR-IC50 Biacore; parameters: replacing the transmembrane domain and the intracellular domain of IR with constant domains from immunoglobulin Fc or λ subunits; made in house; host or cells: human embryonic kidney 293 cells (Bass et al.)
Target sequence in this assay (P06213 28-758 limits assumed): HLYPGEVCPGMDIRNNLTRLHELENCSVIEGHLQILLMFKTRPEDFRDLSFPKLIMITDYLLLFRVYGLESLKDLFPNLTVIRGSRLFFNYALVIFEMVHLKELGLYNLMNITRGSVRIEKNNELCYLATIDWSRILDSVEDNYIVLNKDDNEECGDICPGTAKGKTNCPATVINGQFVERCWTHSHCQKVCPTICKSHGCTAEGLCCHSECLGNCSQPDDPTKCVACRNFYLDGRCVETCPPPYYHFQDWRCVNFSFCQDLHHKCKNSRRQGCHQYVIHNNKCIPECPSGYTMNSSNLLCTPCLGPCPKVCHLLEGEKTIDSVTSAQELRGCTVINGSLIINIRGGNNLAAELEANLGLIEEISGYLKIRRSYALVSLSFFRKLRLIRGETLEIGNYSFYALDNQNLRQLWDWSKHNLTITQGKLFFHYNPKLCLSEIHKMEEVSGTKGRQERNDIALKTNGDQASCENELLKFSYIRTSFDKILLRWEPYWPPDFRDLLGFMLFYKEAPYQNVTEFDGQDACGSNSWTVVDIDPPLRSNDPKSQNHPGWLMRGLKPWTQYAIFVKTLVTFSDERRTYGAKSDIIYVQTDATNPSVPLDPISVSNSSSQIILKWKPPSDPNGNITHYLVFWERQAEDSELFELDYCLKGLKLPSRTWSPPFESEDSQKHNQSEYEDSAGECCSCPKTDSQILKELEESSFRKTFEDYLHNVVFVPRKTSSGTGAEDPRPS
Target sequence in this assay (P06213 763-1382 limits assumed): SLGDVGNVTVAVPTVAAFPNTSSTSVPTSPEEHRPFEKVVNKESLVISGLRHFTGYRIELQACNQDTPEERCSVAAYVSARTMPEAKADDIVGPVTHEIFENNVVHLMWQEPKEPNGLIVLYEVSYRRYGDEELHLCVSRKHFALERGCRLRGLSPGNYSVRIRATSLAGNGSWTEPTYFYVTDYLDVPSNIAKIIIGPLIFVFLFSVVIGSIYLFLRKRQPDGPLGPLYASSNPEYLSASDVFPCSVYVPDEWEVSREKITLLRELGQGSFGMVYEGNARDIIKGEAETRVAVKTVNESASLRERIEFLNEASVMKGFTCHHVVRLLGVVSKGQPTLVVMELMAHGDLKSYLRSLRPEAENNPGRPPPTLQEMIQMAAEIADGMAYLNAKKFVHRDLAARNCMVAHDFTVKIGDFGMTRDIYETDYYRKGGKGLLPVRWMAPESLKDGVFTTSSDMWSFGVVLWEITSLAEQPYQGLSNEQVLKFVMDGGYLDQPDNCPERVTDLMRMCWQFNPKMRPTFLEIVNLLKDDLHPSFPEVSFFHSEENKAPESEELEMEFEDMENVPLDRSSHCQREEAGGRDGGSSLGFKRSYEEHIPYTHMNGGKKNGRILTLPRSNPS

IR [3] = target: T2, IR; experiment: Phage ELISA, binding of phage clones to IR (ratio over background); conditions: ratio of IR divided by ratio of IGF-1R
Target sequence in this assay (P06213 28-758 limits assumed): as the sequence (P06213 28-758 limits assumed) above
Target sequence in this assay (P06213 763-956 limits assumed): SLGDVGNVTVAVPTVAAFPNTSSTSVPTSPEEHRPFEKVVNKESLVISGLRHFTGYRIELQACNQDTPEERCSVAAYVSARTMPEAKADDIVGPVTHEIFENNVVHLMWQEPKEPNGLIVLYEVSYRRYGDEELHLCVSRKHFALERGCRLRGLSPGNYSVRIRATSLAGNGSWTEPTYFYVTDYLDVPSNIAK

IGF-1R [4] = target: T1, IGF-1R; experiment: TR-FRET competition with biotinylated-20E2 for rhIGF-1R; conditions: TR-FRET (rhIGF-1R, b-20E2) versus FP (sIR-Fc), summary of Table 22
MiaPaCa cells = experiment: MiaPaCa cell proliferation assay, IGF-1R agonist format; type: cell-based, human; conditions: for MiaPaCa Agonist: MiaPaCa cell proliferation, agonist effect
MCF-7 cells = experiment: MCF-7 cell proliferation assay, IGF-1R agonist format; type: cell-based, human; conditions: for MCF-7 Agonist: MCF-7 cell proliferation, agonist effect
Excerpt: ; FIGS. 65A-65F), and were used for subsequent experiments.

[5] = test system: FDC-P2 cells expressing the IL-3 and human IGF-1R receptors; experiment: IGF-1 proliferation assay in FDC-P2 cells, agonist format
[6] = target: T3, soluble human insulin receptor-immunoglobulin heavy chain chimera (sIR-Fc) (Homo sapiens, UniProt P06213); experiment: Fluorescence polarization, competition with FITC-RP9 for sIR-Fc; type: binding; conditions: for Bndg Ratio IGF-1R/IR: higher values indicated higher affinity for IR than IGF-1R
T3 construct: replacing the transmembrane domain and the intracellular domain of IR with constant domains from immunoglobulin Fc or λ subunits; made in house; host or cells: human embryonic kidney 293 cells (Bass et al.)

[7] = test system: FDC-P2 cells expressing the IL-3 and human IGF-1R receptors; experiment: IGF-1 proliferation assay in FDC-P2 cells, antagonist format; conditions: FDC-P2 cells
[8] = test system: free fat cells (adipocytes); experiment: Adipocyte / free fat cell (FFC) assay, 3H glucose incorporation into lipid
[9] = target: T4, human insulin receptor (HIR) (Homo sapiens, UniProt P06213); experiment: Insulin receptor binding, competition with 125I-labeled insulin (HIR Kd)
T4 construct: made in house

[10] = FFC assay potency grade, 0, + to ++++++, −
[11] = MBP-fusion or recombinant peptide as listed
[12] = free fat cell assay potency class, Table 7
[13] = read-out: nM ED50 Growth, FDC-P2 cells, agonist format

T4 sequence (P06213 28-758 limits assumed): as the sequence (P06213 28-758 limits assumed) above
T4 sequence (P06213 763-1382 limits assumed): as the sequence (P06213 763-1382 limits assumed) above
T3 sequence (P06213 28-758 limits assumed, stated change not applied): as the sequence (P06213 28-758 limits assumed) above
T3 sequence (P06213 763-956 limits assumed, stated change not applied): as the sequence (P06213 763-956 limits assumed) above
T1 sequence (P08069 31-736 limits assumed): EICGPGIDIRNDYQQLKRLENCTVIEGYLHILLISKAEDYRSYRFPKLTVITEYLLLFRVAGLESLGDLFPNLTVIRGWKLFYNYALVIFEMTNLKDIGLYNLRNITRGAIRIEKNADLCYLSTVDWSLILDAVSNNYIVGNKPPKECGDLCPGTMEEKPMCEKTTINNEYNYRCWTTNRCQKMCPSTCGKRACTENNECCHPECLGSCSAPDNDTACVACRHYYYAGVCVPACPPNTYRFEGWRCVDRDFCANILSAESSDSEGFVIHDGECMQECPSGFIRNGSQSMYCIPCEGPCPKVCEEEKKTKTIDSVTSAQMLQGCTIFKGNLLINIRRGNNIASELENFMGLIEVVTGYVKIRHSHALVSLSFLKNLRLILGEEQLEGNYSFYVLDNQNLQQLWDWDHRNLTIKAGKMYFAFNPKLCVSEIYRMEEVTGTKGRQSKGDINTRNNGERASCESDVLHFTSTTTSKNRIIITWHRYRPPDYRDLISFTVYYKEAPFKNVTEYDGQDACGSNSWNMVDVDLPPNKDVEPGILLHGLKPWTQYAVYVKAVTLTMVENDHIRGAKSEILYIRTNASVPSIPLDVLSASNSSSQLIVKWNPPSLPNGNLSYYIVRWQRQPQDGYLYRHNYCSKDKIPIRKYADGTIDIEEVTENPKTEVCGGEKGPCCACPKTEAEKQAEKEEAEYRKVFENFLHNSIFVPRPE
T1 sequence (P08069 741-935 limits assumed): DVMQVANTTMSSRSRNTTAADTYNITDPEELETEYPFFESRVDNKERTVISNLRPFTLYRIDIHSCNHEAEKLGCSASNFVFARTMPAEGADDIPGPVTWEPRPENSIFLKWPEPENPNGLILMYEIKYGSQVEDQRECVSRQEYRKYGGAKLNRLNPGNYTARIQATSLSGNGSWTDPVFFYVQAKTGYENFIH

Compound: CC(C)C[C@H](NC(=O)CNC(=O)[C@H](CCCNC(=N)N)NC(=O)CNC(=O)[C@H](CCC(=O)O)NC(=O)[C@@H](N)C(C)C)C(=O)N[C@@H](Cc1ccccc1)C(=O)N[C@@H](Cc1ccc(O)cc1)C(=O)N[C@@H](CC(=O)O)C(=O)N[C@@H](CC(C)C)C(=O)N[C@@H](CC(C)C)C(=O)N[C@@H](CCCNC(=N)N)C(=O)N[C@@H](CCC(N)=O)C(=O)N[C@@H](CC(C)C)C(=O)N[C@@H](CC(C)C)C(=O)N[C@@H](C)C(=O)N[C@@H](CCCNC(=N)N)C(=O)N[C@@H](CCCNC(=N)N)C(=O)N[C@@H](CCC(N)=O)C(=O)N[C@@H](CC(N)=O)C(=O)NCC(=O)O [20E2B-3-C6-IGFR]
Comparisons IGF-1R/IR (IGF-1R [1]): 14.8
IC50 (IR [2]): > 5000 nM
Comparisons IR/IGF-1R (IR [3]): 0.1

Compound: CC[C@H](C)[C@H](NC(=O)CN)C(=O)N[C@H](C(=O)N[C@@H](CO)C(=O)N[C@@H](CCC(N)=O)C(=O)N[C@@H](CO)C(=O)N[C@H]1CSSC[C@@H](C(=O)N[C@@H](Cc2c[nH]c3ccccc23)C(=O)O)NC(=O)[C@H](Cc2c[nH]c3ccccc23)NC(=O)[C@H](Cc2c[nH]c3ccccc23)NC(=O)[C@@H]2CCCN2C(=O)[C@H](CC(=O)O)NC(=O)[C@H](CO)NC(=O)[C@H](C(C)C)NC(=O)[C@H](CCC(N)=O)NC(=O)CNC(=O)[C@H](C)NC(=O)[C@H](Cc2ccccc2)NC(=O)[C@H](Cc2c[nH]c3ccccc23)NC(=O)[C@H](CC(=O)O)NC(=O)[C@H](Cc2ccc(O)cc2)NC(=O)[C@H](Cc2ccccc2)NC(=O)[C@H](CO)NC(=O)[C@H](CCC(=O)O)NC(=O)[C@@H]2CCCN2C1=O)[C@@H](C)CC [Peptide G33] (HELM PEPTIDE1{G.I.I.S.Q.S.C.P.E.S.F.Y.D.W.F.A.G.Q.V.S.D.P.W.W.C.W}$PEPTIDE1,PEPTIDE1,7:R3-25:R3$$$V2.0; N-terminus and C-terminus assumed; bridges inferred)
binding to IGF-1R compared with IR, in words (IGF-1R [4]): comparable binding to IGF-1R and IR
MiaPaCa Agonist (MiaPaCa cells): +
IGF-1R agonist activity, proliferation of MCF-7 and MiaPaCa cells, in words (MCF-7 cells; MCF-7 and MiaPaCa cells (Tables 27-28)): IGF-1R agonist activity
MCF-7 Agonist (MCF-7 cells): +
FDC-P2 Agonist ([5]; FDC-P2 cell proliferation, agonist effect): +
agonist activity at IGF-1R, in words ([5]; FDC-P2 cells): IGF-1R agonist activity
EC50 ([5]; read-out: ED50, agonist activity at IGF-1R, FDC-P2 cells): ~10000 nM
potency / affinity at IR, in words ([6]; FP with FITC-RP9, summary of Table 22): less potent
Bndg Ratio IGF-1R/IR [6]: 1.3
antagonist activity at IGF-1R, in words [7]: no antagonist activity

Compound: CC(C)[C@H](NC(=O)[C@H](Cc1ccccc1)NC(=O)[C@H](Cc1c[nH]c2ccccc12)NC(=O)[C@H](CC(=O)O)NC(=O)[C@H](Cc1ccc(O)cc1)NC(=O)[C@H](Cc1ccccc1)NC(=O)[C@H](CC(N)=O)NC(=O)[C@H](CCC(=O)O)NC(=O)[C@H](Cc1c[nH]cn1)NC(=O)[C@H](Cc1ccccc1)NC(=O)CNC(=O)CNC(=O)[C@@H](N)CSSC[C@H](N)C(=O)NCC(=O)NCC(=O)N[C@@H](Cc1ccccc1)C(=O)N[C@@H](Cc1c[nH]cn1)C(=O)N[C@@H](CCC(=O)O)C(=O)N[C@@H](CC(N)=O)C(=O)N[C@@H](Cc1ccccc1)C(=O)N[C@@H](Cc1ccc(O)cc1)C(=O)N[C@@H](CC(=O)O)C(=O)N[C@@H](Cc1c[nH]c2ccccc12)C(=O)N[C@@H](Cc1ccccc1)C(=O)N[C@H](C(=O)N[C@@H](CCCNC(=N)N)C(=O)N[C@@H](CCC(N)=O)C(=O)N[C@H](C(=O)N[C@@H](CO)C(=O)N[C@@H](CCCCN)C(=O)N[C@@H](CCCCN)C(=O)O)C(C)C)C(C)C)C(=O)N[C@@H](CCCNC(=N)N)C(=O)N[C@@H](CCC(N)=O)C(=O)N[C@H](C(=O)N[C@@H](CO)C(=O)N[C@@H](CCCCN)C(=O)N[C@@H](CCCCN)C(=O)O)C(C)C [Peptide S228]
FFC [8, 10]: ++

Compound: CC[C@@H](C)[C@@H](NC(=O)[C@H](CCC(=O)O)NC(=O)[C@H](CC(=O)O)NC(=O)[C@H](Cc1ccccc1)NC(=O)[C@H](Cc1c[nH]c2ccccc12)NC(=O)[C@H](CCC(=O)O)NC(=O)[C@H](Cc1ccc(O)cc1)NC(=O)[C@H](Cc1ccccc1)NC(=O)[C@H](CCC(=O)O)NC(=O)[C@H](CCCCN)NC(=O)[C@H](CC(N)=O)NC(=O)[C@H](CC(N)=O)NC(=O)[C@@H](N)CCCCN)C(=O)NCC(=O)N[C@H](CCC(N)=O)C(=O)O [Peptide S320] (HELM PEPTIDE1{K.N.N.K.E.F.Y.E.W.F.D.E.[dI].G.[dQ]}$$$$V2.0; N-terminus and C-terminus assumed)
FFC [8, 10]: 0

Compound: (ESFYDWFERQLGK)2-23 [Peptide S415]
activity in the free fat cell (FFC) assay / at IR, in words [8]: highly potent

Compound: ESFYDWFERQ [Peptide S400]
FFC ([8]; Table 6, free fat cell assay): 0
FFC [8, 12]: 0

Compound: FHENFYDWFVQRVSKK [H2C (D117)]
Bndg Ratio IGF-1R/IR [6]: 9

Compound: GSLDESFYDWFER [Peptide S396]
FFC ([8]; Table 6, free fat cell assay): 0
FFC [8, 12]: 0

Compound: GSLDESFYDWFERQ [Peptide S394]
activity in the free fat cell (FFC) assay / at IR, in words [8]: potency similar to full-length RP9 monomer peptides
FFC [8, 12]: +

Compound: GSLDESFYDWFERQL [Peptide S395]
FFC ([8]; Table 6, free fat cell assay): +
Kd ([9]; Table 6): 91 nM

Compound: GSLDESFYDWFERQLG [Peptide S386]
FFC [8, 10]: +

Compound: MADYKDDDDKWLDQEWAWVQCEVYGRGCPSGGSGGSGSLDESFYDWFERQLGKKAAA(ETAG)PG [Peptide 539]
activity in the free fat cell (FFC) assay / at IR, in words [8]: full agonist

Compound: QSFYDYIEELLGGEWKK [Peptide 20E2-PD1-IR]
IC50 (IR [2]): > 5000 nM

Compound: RB596 (MQNDDGSLDESFYDWFERQLGHHHHHHPG)
FF ([8]; fat cell potency, symbols ++ and − not defined in the table): 9.4*10^−8

Compound: RP6-D8B12 (TFYSCLASLLTGTPQPNRGPWERCRWLEQERAWIWCEIQGSGCRA; not fully specified; cysteine pairing not given here)
MiaPaCa Agonist (MiaPaCa cells): +
MCF-7 Agonist (MCF-7 cells): +

Compound: WLDQERAWLWCEISGRGCLSGGSGGSGGSGGSGSLDESFYDWFERQLGKK (disulfide 11-18 (inferred)) [D815-RP9 12 aa]
Max Action ([5]; FDC-P2 cells, agonist format): 100%
EC50 [5, 13]: 10000 nM

Compound: WLDQERAWLWCEISGRGCLSGGSGGSGSLDESFYDWFERQLGKK (disulfide 11-18 (inferred)) [D815-RP9 6 aa]
Max Action ([5]; FDC-P2 cells, agonist format): >50%
EC50 [5, 13]: 50 nM

Further lines, results first:

Kd [9, 11]: 55 nM
Compound: DYKDDDDKVRVDWLQRNANFYAWFVAELGGGSGGSGGSGGSGRVDWLQRNANFYDWFVAELGAAAGAPVPYPDPLEPRAA [RB509]

IC50 (IR [2]): > 10000 nM
Compound: GRFYGWFQDAIDQLMPWGFD [RP-3]

IC50 (IR [2]): 1000 nM
Compound: GSRPVFHEQFYEWFVDQLGL [RP-1]

EC50 (MiaPaCa cells; MiaPaCa cells, serum-free conditions, read-out: ED50, proliferation): 5 nM
EC50 (MCF-7 cells; MCF-7 cells, serum-free conditions, read-out: ED50, proliferation): 5 nM
Compound: Insulin-like growth factor 1 [IGF-1, reference compound]

Kd [9, 11]: 44 nM
Compound: MADYKDDDDKGSLDESFYDWFERQLGKKGGSGGSGSLDESFYDWFERQLGKKAAAGAPVPYPDPLEPRPG [RB521]

Kd [9, 11]: 210 nM
Compound: MGSLDESFYDWFERQLGEEEGGDHHHHHHPG [RB569]

Kd [9, 11]: 25 nM
Compound: MQNDDGSLDESFYDWFERQLGEEEGGDHHHHHHPG [RB570]

IC50 (IR [2]): 5000 nM
Compound: PPWGARFYDAIEQLVFDNL [RP-4]

IC50 (IR [2]): 1000 nM
Compound: RSEASFHVEFYSWFEEQLRS [RP-2]
